The nature of assay [1]: (§1) Biochemical Assay: A variety of Ras proteins may be inhibited by compounds of the present invention (e.g., K-Ras, N-Ras, H-Ras, and mutants thereof at positions 12, 13 and 61, such as G12C, G12D, G12V, G12S, G13C, G13D, and Q61L, and others described herein). The purpose of this biochemical assay is to measure the ability of test compounds to covalently label nucleotide-loaded K-Ras isoforms. […] The sample is incubated at 25? C. for a time period of up to 24 hours prior to quenching by the addition of 10 uL of 5% Formic Acid. Quenched samples are centrifuged at 15000 rpm for 15 minutes in a benchtop centrifuge before injecting a 10 uL aliquot onto a reverse phase C4 column and eluting into the mass spectrometer with an increasing acetonitrile gradient in the mobile phase. Analysis of raw data may be carried out using Waters MassLynx MS software, with % bound calculated from the deconvoluted protein peaks for labeled and unlabeled K-Ras.

Assay [2] in a line: as §1. The source holds these as a separate data set.
Assay [3] can be described thus: as §1. This is another data set of the same source.
The nature of assay [4]: as §1. This is another data set of the same source.
A short description of assay [5]: as §1. The source holds these as a separate data set.
Assay [6] in a line: as §1. The source holds these as a separate data set.
Assay [7] in a line: as §1. The source holds these as a separate data set.

pIC50: −log10 of the molar value.

Take `CCn1c(-c2cccnc2C(C)OC)c2c3cc(ccc31)-c1cccc(c1)C[C@H](NC(=O)[C@@H](COC1CN(C(=O)C#CC(C)(C)N3CCC3)C1)C(C)C)C(=O)N1CCC[C@H](N1)C(=O)OCC(C)(C)C2` (some centres undefined): the negative logarithm of the IC50 (pIC50) in assay [1], in assay [4] and in assay [7] was less than 5.00 in each case. The half-inhibitory concentration (IC50) result was “in the range around 5.5 µM” in assay [2], “in the range around 5.5 µM” in assay [3], “in the range around 5.5 µM” in assay [5] and “in the range around 0.055 µM” in assay [6].
On to `CCn1c(-c2cccnc2C(C)OC)c2c3cc(ccc31)N1CCO[C@@H](C[C@H](NC(=O)[C@@H](COC3CN(C(=O)C#CC(C)(C)N(C)C)C3)C(C)C)C(=O)N3CCC[C@H](N3)C(=O)OCC(C)(C)C2)C1` (some centres undefined), for which the pIC50 was less than 5.00 in assay [1]; less than 5.00 in assay [3]; less than 5.00 in assay [4]; less than 5.00 in assay [5]; more than 8.00 in assay [6]; less than 5.00 in assay [7]. Besides, the IC50 result in assay [2] was “in the range around 5.5 µM”.
With `COC(C)c1ncccc1-c1c2c3cc(ccc3n1CC(F)(F)F)-c1cccc(c1)CN(NC(=O)[C@@H](COC1CN(C(=O)C#CC(C)(C)N(C)C)C1)C(C)C)C(=O)N1CCC[C@H](N1)C(=O)OCC(C)(C)C2` (some centres undefined), the IC50 entry is “in the range around 5.5 µM” in assay [1]; “in the range around 0.55 µM” in assay [2]; “in the range around 5.5 µM” in assay [3]; “in the range around 5.5 µM” in assay [4]; “in the range around 5.5 µM” in assay [5]; “in the range around 5.5 µM” in assay [7]. The pIC50 in assay [6] was more than 8.00.
Consider `C=CC(=O)N1CCOC2(CCN(C(=O)N(C)[C@H](C(=O)N[C@H]3C[C@H]4CN(CCO4)c4ccc5c(c4)c(c(-c4cccnc4C(C)OC)n5CC)CC(C)(C)COC(=O)[C@@H]4CCCN(N4)C3=O)C(C)C)CC2)C1` (some centres undefined), for which the 50% inhibitory concentration (IC50) entry in assay [1] is “in the range around 0.55 µM”; in assay [2], “in the range around 0.055 µM”; in assay [3] it was “in the range around 0.55 µM”; in assay [4], “in the range around 5.5 µM”; in assay [5], “in the range around 0.55 µM”; in assay [6], “in the range around 0.55 µM”. In addition, the 50% inhibitory concentration (IC50) result in assay [7] was “in the range around 5.5 µM”.
`CCn1c(-c2cccnc2C(C)OC)c2c3cc(ccc31)-c1csc(n1)C[C@H](NC(=O)CCOC1CN(C(=O)C#CC(C)(C)N(C)C)C1)C(=O)N1CCC[C@H](N1)C(=O)OCC(C)(C)C2` (some centres undefined): the IC50 entry in assay [1] was “in the range around 5.5 µM”; in assay [2] it was “in the range around 5.5 µM”; in assay [3], “in the range around 5.5 µM”; in assay [4], “in the range around 5.5 µM”; in assay [5], “in the range around 5.5 µM”; in assay [7] it was > 10 µM and in the range around 5.5 µM. Further, the pIC50 in assay [6] is more than 8.00.
As to `CCn1c(-c2cccnc2C(C)OC)c2c3cc(ccc31)-c1cc(F)cc(c1)C[C@H](NC(=O)[C@@H](COC1CN(C(=O)C#CC(C)(C)N(C)C)C1)C(C)C)C(=O)N1CCC[C@H](N1)C(=O)OCC(C)(C)C2` (some centres undefined), the pIC50 in assay [1], in assay [4] and in assay [7] was less than 5.00 each time. Besides, the IC50 result was “in the range around 5.5 µM” in assay [2], “in the range around 5.5 µM” in assay [3], “in the range around 5.5 µM” in assay [5] and “in the range around 0.055 µM” in assay [6].
In the case of `C=CC(=O)Nc1ncc(C(=O)N(C)[C@H](C(=O)N[C@H]2Cc3cccc(c3)-c3ccc4c(c3)c(c(-c3cccnc3C(C)OC)n4CC)CC(C)(C)COC(=O)[C@@H]3CCCN(N3)C2=O)C(C)C)n1C` (some centres undefined), the IC50 entry is “in the range around 5.5 µM” in assay [1]; “in the range around 5.5 µM” in assay [3]; “in the range around 5.5 µM” in assay [4]; “in the range around 0.55 µM” in assay [5]; “in the range around 5.5 µM” in assay [7]. The pIC50 in assay [2] and in assay [6] was more than 8.00 throughout.
As to `CCn1c(-c2cccnc2C(C)OC)c2c3cc(ccc31)-c1csc(n1)C[C@H](NC(=O)[C@@H](COC1CN(C(=O)C#CC(C)(C)N(C)C)C1)C(C)C)C(=O)N1CCC[C@H](N1)C(=O)OCC(C)(C)C2` (some centres undefined), the pIC50 is less than 5.00 in assay [1], less than 5.00 in assay [4], more than 8.00 in assay [6] and less than 5.00 in assay [7]. Also, the IC50 result in assay [2], in assay [3] and in assay [5] was “in the range around 5.5 µM” throughout.
As for `COC(C)c1ncccc1-c1c2c3cc(ccc3n1CC(F)(F)F)-c1cccc(c1)C[C@H](NC(=O)[C@@H](COC1CN(C(=O)C#CC(C)(C)N(C)C)C1)C(C)C)C(=O)N1CCC[C@H](N1)C(=O)OCC(C)(C)C2` (some centres undefined), the IC50 entry in assay [1], in assay [2], in assay [3] and in assay [5] was “in the range around 5.5 µM” throughout. The pIC50 in assay [4] was less than 5.00; in assay [6], more than 8.00; in assay [7], less than 5.00.
For `CCn1c(-c2cccnc2C(C)OC)c2c3cc(ccc31)-c1cccc(c1)C[C@H](NC(=O)[C@@H](COC1CN(C(=O)C#C[C@H]3COCCN3C)C1)C(C)C)C(=O)N1CCC[C@H](N1)C(=O)OCC(C)(C)C2` (some centres undefined), the pIC50 in assay [1], in assay [3], in assay [4], in assay [5] and in assay [7] was less than 5.00 throughout. For the same compound, the IC50 entry in assay [2] is “in the range around 5.5 µM”; in assay [6] it was “in the range around 0.055 µM”.
In the case of `C=CC(=O)Nc1cnc(OC[C@H](C(=O)N[C@H]2Cc3cccc(c3)-c3ccc4c(c3)c(c(-c3cccnc3C(C)OC)n4CC)CC(C)(C)COC(=O)[C@@H]3CCCN(N3)C2=O)C(C)C)n1C` (some centres undefined), the IC50 result in assay [1] is “in the range around 5.5 µM”; in assay [2] it was “in the range around 0.055 µM”; in assay [3], “in the range around 5.5 µM”; in assay [4] it was “in the range around 5.5 µM”; in assay [5], “in the range around 0.55 µM”; in assay [7], “in the range around 5.5 µM”. Moreover, in assay [6], the pIC50 was more than 8.00.
For `CCn1c(-c2cccnc2C(C)OC)c2c3cc(ccc31)N1CCO[C@@H](C[C@H](NC(=O)[C@H](C(C)C)N(C)C(=O)C3(F)CCN(C(=O)/C=C/CN(C)C)CC3)C(=O)N3CCC[C@H](N3)C(=O)OCC(C)(C)C2)C1` (some centres undefined), the IC50 entry in assay [1] was “in the range around 5.5 µM”; in assay [2] it was “in the range around 0.55 µM”; in assay [3], “in the range around 5.5 µM”; in assay [4] it was “in the range around 5.5 µM”; in assay [5], “in the range around 5.5 µM”; in assay [6], “in the range around 0.055 µM”. In addition, in assay [7], the negative-log IC50 (pIC50) was less than 5.00.
Regarding `C=CC(=O)N1CC[C@H](C(=O)N(C)C(C(=O)N[C@H]2C[C@H]3CN(CCO3)c3ccc4c(c3)c(c(-c3cccnc3C(C)OC)n4CC)CC(C)(C)COC(=O)[C@@H]3CCCN(N3)C2=O)C(C)C)C1` (some centres undefined), the 50% inhibitory concentration (IC50) result in assay [1] was “in the range around 5.5 µM”; in assay [2] it was “in the range around 5.5 µM”; in assay [3], “in the range around 5.5 µM”; in assay [6] it was “in the range around 0.55 µM”. For the same compound, the pIC50 in assay [4], in assay [5] and in assay [7] was less than 5.00 in each case.
On to `C=CC(=O)N1CC(OC[C@H](C(=O)N[C@H]2Cc3cccc(c3)-c3ccc4c(c3)c(c(-c3cccnc3C(C)OC)n4CC(F)(F)F)CC(C)(C)COC(=O)[C@@H]3CCCN(N3)C2=O)C(C)C)C1` (some centres undefined), for which the IC50 result in assay [1] is “in the range around 5.5 µM”; in assay [2] it was “in the range around 0.55 µM”; in assay [3], “in the range around 5.5 µM”; in assay [4], “in the range around 5.5 µM”; in assay [5], “in the range around 0.55 µM”; in assay [6] it was “in the range around 0.055 µM”. For the same compound, the IC50 result in assay [7] was “in the range around 5.5 µM”.
In the case of `COC(C)c1ncccc1-c1c2c3cc(ccc3n1CC(F)(F)F)-c1cc(cc(C(F)F)c1)C[C@H](NC(=O)[C@@H](COC1CN(C(=O)C#CC(C)(C)N(C)C)C1)C(C)C)C(=O)N1CCC[C@H](N1)C(=O)OCC(C)(C)C2` (some centres undefined), the pIC50 in assay [1], in assay [2], in assay [3], in assay [4], in assay [5] and in assay [7] was less than 5.00 in each case. Also, the 50% inhibitory concentration (IC50) entry in assay [6] is “in the range around 0.55 µM”.
On to `CCn1c(-c2cccnc2C(C)OC)c2c3cc(ccc31)N1CCO[C@@H](C[C@H](NC(=O)[C@@H](COC3CCN(C(=O)C#CC(C)(C)N(C)C)CC3)C(C)C)C(=O)N3CCC[C@H](N3)C(=O)OCC(C)(C)C2)C1` (some centres undefined), for which the pIC50 in assay [1], in assay [3], in assay [4], in assay [5] and in assay [7] was less than 5.00 throughout. Moreover, the figures for the IC50 result in assay [2] and in assay [6] were “in the range around 5.5 µM” and “in the range around 0.055 µM”, respectively.
As to `COC(C)c1ncccc1-c1c2c3cc(ccc3n1CC(F)(F)F)-c1csc(n1)C[C@H](NC(=O)[C@@H](COC1CN(C(=O)C#CC(C)(C)N(C)C)C1)C(C)C)C(=O)N1CCC[C@H](N1)C(=O)OCC(C)(C)C2` (some centres undefined), the IC50 result in assay [1], in assay [2], in assay [3], in assay [5] and in assay [7] was “in the range around 5.5 µM” in each case. The pIC50 in assay [4] is less than 5.00; in assay [6] it was more than 8.00.

Broadly, the pIC50 is the negative decadic logarithm of the IC50, by convention in mol/L. For orientation: IC50 means the midpoint of a concentration-inhibition curve.
